In US20240246942A1, “KINASE INHIBITORS FOR THE TREATMENT OF NEURODEGENERATIVE DISEASES” (priority 2020, published 2024):

What was measured:
Test in all cases: biochemical
[1] = target: T1, panel of 374 wild-type kinases (Homo sapiens, UniProt P05129); details: read-out: % Enzyme Activity (relative to DMSO controls), kinase PKCg
T1 construct: purchased Reaction Biology Corporation

[2] = target: T2, panel of 374 wild-type kinases (Homo sapiens, UniProt P29317); details: read-out: % Enzyme Activity (relative to DMSO controls), EPHA2
T2 construct: purchased Reaction Biology Corporation
T2 sequence (P29317 24-976): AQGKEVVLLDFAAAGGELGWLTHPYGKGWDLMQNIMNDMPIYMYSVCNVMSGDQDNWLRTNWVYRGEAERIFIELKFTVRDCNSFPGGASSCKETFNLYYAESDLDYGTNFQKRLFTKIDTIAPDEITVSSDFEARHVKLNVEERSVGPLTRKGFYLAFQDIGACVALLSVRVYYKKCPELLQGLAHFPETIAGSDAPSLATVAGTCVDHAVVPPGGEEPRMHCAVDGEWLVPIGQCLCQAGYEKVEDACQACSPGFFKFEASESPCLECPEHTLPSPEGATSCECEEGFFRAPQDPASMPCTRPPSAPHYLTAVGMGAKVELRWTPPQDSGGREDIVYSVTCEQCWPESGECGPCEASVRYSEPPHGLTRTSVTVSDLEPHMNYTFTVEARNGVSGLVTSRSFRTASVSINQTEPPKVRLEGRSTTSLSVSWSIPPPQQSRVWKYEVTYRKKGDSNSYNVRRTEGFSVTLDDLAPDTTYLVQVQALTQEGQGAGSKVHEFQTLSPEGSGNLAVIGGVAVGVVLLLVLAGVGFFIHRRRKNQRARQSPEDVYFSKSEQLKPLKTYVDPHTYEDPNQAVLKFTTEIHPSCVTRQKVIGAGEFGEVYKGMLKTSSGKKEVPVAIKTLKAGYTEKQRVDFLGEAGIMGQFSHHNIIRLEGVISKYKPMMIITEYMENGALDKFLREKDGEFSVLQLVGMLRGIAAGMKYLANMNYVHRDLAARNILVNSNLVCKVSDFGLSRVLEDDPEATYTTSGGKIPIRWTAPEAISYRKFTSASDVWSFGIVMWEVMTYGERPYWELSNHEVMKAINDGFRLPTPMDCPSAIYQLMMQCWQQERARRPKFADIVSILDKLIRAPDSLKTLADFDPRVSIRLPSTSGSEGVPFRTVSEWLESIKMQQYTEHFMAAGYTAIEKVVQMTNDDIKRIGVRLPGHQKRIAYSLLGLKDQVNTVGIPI

[3] = target: T3, panel of 374 wild-type kinases (Homo sapiens, UniProt P36894); details: read-out: % Enzyme Activity (relative to DMSO controls), ALK3/BMPR1A
T3 construct: purchased Reaction Biology Corporation
T3 sequence (P36894 24-532): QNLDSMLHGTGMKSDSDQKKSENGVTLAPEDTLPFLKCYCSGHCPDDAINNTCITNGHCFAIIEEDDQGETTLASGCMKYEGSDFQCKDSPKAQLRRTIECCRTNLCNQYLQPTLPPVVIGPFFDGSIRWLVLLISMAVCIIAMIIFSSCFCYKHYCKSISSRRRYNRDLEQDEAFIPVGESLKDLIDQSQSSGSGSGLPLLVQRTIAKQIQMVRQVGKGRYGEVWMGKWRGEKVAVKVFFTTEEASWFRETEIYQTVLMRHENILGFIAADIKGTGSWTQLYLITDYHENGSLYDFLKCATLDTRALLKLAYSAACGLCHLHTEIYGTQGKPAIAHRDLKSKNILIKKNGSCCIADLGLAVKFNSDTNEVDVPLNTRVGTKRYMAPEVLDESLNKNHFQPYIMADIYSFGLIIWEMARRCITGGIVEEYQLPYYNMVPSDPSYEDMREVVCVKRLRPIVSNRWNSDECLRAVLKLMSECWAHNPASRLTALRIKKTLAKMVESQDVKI

[4] = target: T4, panel of 374 wild-type kinases (Homo sapiens, UniProt P42684); details: read-out: % Enzyme Activity (relative to DMSO controls), ABL2/ARG
T4 construct: purchased Reaction Biology Corporation
T4 sequence (P42684 whole entry): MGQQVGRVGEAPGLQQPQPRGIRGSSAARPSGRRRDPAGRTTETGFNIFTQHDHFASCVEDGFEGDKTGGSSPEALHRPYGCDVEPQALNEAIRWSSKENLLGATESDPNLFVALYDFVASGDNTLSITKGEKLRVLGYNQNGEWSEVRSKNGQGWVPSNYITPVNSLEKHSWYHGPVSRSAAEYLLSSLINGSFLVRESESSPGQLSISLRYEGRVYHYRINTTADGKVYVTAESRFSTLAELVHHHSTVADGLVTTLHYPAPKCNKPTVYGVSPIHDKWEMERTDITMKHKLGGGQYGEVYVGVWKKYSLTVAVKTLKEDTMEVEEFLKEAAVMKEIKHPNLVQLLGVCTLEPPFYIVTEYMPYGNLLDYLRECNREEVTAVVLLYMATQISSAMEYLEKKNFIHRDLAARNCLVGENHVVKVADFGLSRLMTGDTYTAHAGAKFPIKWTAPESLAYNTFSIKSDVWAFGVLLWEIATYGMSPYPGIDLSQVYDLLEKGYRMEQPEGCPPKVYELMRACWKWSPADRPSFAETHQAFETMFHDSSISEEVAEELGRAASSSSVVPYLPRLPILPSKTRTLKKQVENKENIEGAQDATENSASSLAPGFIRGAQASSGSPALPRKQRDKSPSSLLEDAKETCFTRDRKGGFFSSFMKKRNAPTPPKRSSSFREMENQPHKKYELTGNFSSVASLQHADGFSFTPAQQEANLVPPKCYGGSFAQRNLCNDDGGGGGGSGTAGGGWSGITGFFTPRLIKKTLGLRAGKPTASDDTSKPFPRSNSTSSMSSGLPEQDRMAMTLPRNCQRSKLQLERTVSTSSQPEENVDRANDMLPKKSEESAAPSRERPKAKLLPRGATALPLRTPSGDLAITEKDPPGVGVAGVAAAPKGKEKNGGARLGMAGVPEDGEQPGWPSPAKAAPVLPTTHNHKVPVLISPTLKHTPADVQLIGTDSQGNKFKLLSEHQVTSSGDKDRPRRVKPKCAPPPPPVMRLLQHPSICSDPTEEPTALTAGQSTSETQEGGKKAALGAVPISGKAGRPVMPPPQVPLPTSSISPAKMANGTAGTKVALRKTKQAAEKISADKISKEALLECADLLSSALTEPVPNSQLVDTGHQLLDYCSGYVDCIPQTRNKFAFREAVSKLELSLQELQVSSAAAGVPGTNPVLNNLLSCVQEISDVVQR

[5] = target: T5, panel of 374 wild-type kinases (Homo sapiens, UniProt P45983); details: JNK1, read-out: % Enzyme Activity (relative to DMSO controls)
T5 construct: purchased Reaction Biology Corporation
T5 sequence (P45983 whole entry): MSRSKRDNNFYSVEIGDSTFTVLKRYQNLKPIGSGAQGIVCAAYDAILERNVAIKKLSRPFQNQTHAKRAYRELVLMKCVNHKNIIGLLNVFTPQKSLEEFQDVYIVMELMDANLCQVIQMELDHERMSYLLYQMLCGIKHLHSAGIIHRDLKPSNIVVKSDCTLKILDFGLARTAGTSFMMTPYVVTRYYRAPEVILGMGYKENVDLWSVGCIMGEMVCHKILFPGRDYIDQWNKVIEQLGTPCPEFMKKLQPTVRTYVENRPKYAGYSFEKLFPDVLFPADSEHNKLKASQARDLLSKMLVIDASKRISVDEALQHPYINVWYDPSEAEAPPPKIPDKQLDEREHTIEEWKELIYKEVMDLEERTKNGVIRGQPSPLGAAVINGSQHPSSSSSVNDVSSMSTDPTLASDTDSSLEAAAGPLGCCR

[6] = target: T6, panel of 374 wild-type kinases (Homo sapiens, UniProt Q00536); details: read-out: % Enzyme Activity (relative to DMSO controls), CDK16/cyclin Y (PCTAIRE)
T6 construct: purchased Reaction Biology Corporation

[7] = target: T7, panel of 374 wild-type kinases (Homo sapiens, UniProt Q06187); details: read-out: % Enzyme Activity (relative to DMSO controls), BTK
T7 construct: purchased Reaction Biology Corporation
T7 sequence (Q06187 whole entry): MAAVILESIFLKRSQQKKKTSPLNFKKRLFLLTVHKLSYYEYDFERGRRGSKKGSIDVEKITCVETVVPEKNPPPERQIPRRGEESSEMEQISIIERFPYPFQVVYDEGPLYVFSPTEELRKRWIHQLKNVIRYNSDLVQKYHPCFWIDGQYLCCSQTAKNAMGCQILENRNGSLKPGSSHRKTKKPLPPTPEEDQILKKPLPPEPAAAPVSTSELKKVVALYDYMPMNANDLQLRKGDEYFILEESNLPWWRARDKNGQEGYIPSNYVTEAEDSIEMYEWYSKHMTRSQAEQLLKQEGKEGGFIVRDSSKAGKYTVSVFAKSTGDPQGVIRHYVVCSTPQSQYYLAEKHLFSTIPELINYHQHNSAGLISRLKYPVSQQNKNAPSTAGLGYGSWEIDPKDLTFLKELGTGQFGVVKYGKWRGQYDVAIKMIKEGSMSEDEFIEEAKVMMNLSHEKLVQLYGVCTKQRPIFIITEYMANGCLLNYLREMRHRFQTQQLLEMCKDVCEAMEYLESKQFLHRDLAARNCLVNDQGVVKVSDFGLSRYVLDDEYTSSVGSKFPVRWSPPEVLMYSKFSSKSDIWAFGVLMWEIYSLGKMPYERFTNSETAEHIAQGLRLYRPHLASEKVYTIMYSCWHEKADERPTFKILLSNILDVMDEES

[8] = target: T8, panel of 374 wild-type kinases (Homo sapiens, UniProt Q9BZL6); details: read-out: % Enzyme Activity (relative to DMSO controls), kinase PKD2/PRKD2
T8 construct: purchased Reaction Biology Corporation
T8 sequence (Q9BZL6 1-878): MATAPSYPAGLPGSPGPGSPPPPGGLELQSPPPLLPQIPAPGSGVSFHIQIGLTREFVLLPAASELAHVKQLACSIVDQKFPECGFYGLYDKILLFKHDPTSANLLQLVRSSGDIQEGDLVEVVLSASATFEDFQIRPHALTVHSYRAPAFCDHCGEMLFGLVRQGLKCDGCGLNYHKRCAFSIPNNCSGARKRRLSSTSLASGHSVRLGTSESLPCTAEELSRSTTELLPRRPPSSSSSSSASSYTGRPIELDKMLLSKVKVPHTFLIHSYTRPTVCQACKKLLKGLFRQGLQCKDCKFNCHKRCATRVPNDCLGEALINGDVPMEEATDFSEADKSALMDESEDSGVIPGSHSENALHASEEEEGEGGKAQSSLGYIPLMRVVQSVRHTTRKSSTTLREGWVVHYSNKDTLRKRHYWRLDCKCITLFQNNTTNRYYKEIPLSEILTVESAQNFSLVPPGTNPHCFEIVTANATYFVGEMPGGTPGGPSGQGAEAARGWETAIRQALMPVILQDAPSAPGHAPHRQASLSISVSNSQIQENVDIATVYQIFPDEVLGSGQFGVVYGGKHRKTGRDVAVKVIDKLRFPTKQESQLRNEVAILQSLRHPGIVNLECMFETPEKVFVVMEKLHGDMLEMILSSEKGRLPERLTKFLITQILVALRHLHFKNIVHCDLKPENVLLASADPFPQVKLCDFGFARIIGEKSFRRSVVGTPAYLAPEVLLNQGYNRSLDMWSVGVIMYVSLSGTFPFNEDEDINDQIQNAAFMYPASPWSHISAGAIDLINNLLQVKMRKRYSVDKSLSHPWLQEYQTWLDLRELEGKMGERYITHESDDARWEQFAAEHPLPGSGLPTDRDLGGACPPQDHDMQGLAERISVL

[9] = target: T9, panel of 374 wild-type kinases (Homo sapiens, UniProt Q9H1R3); details: read-out: % Enzyme Activity (relative to DMSO controls), MLCK2/MYLK2
T9 construct: purchased Reaction Biology Corporation
T9 sequence (Q9H1R3 whole entry): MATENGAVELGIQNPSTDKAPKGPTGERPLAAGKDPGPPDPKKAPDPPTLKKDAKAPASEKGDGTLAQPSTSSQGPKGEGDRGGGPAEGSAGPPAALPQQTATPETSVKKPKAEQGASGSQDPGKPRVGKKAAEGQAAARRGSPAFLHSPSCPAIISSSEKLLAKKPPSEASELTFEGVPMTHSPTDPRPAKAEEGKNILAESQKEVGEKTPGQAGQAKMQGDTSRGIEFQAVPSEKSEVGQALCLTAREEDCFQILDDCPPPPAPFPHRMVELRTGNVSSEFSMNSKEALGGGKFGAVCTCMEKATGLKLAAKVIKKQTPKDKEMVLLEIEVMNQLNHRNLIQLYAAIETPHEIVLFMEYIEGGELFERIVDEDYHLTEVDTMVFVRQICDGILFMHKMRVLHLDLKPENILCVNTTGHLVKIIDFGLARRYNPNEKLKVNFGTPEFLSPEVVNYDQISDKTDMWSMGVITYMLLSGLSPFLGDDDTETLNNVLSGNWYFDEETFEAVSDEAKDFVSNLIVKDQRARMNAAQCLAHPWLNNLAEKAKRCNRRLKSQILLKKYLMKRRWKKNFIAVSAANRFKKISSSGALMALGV

[10] = target: T10, panel of 374 wild-type kinases (Homo sapiens, UniProt Q9H2K8); details: read-out: % Enzyme Activity (relative to DMSO controls), kinase TAOK3/JIK
T10 construct: purchased Reaction Biology Corporation
T10 sequence (Q9H2K8 1-898): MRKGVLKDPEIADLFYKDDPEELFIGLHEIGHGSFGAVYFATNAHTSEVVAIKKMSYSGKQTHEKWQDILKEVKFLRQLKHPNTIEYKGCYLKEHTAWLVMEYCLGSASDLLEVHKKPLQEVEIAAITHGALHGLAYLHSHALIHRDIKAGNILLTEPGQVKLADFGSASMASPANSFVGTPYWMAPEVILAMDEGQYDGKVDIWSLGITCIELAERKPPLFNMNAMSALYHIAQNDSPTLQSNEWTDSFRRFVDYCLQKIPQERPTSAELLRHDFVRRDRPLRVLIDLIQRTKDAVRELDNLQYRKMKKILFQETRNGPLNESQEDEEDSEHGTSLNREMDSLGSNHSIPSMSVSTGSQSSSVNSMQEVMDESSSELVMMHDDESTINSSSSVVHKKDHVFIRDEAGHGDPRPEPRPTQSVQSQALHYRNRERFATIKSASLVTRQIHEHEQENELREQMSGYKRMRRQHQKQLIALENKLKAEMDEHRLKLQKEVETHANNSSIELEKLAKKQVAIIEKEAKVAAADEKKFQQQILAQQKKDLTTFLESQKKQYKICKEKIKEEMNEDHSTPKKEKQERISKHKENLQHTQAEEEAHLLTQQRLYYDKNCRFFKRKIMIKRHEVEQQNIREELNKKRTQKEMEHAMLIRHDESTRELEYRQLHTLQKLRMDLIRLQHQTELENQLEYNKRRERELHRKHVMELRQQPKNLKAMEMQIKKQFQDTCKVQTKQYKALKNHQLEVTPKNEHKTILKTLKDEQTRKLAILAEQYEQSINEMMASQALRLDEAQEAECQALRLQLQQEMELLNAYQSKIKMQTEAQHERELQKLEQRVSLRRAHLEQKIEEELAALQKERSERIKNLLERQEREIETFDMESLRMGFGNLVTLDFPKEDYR

[11] = target: T11, panel of 374 wild-type kinases (Homo sapiens, UniProt Q9H2X6); details: read-out: % Enzyme Activity (relative to DMSO controls), HIPK2
T11 construct: purchased Reaction Biology Corporation

Row | Structure (SMILES) | remaining activity at 5 µM [1] [%] | remaining activity at 5 µM [2] [%] | remaining activity at 5 µM [3] [%] | remaining activity at 5 µM [4] [%] | remaining activity at 5 µM [5] [%] | remaining activity at 5 µM [6] [%] | remaining activity at 5 µM [7] [%] | remaining activity at 5 µM [8] [%] | remaining activity at 5 µM [9] [%] | remaining activity at 5 µM [10] [%] | remaining activity at 5 µM [11] [%] | also measured
1 | O=C(Nc1cnn(-c2csc(C(=O)NC3COC3)c2)c1)Nc1ccccc1Cl [Compound 17, 4-(4-(3-(2-chlorophenyl)ureido)-1H-pyrazol-1-yl)-N-(oxetan-3-yl)thiophene-2-carboxamide] | 98 | 101 | 105 | 92.7 | 57.6 | 94.8 | 92.6 | 94.9 | 89.9 | 103 | 102 | 
2 | O=C(Nc1cnn(-c2csc(C(=O)NC3COC3)c2)c1)Nc1c(F)cccc1Cl [Compound 25, 4-(4-(3-(2-chloro-6-fluorophenyl)ureido)-1H-pyrazol-1-yl)-N-(oxetan-3-yl)thiophene-2-carboxamide] | 98.3 | 97.9 | 103 | 88.7 | 49.1 | 101 | 89.3 | 102 | 83.5 | 90.2 | 92.6 | 
3 | Cc1sc(C(=O)NC2COC2)cc1-n1cc(NC(=O)Nc2c(F)cccc2Cl)cn1 [Compound 27, 4-(4-(3-(2-chloro-6-fluorophenyl)ureido)-1H-pyrazol-1-yl)-5-methyl-N-(oxetan-3-yl)thiophene-2-carboxamide] |  |  |  |  |  |  |  |  |  |  |  | remaining activity at 10 µM ([1]; 10 uM): 102%; remaining activity at 10 µM ([2]; 10 uM): 102%; remaining activity at 10 µM ([3]; 10 uM): 92.5%; remaining activity at 10 µM ([4]; 10 uM): 123%; remaining activity at 10 µM ([5]; 10 uM): 76.3%; remaining activity at 10 µM ([6]; 10 uM): 102%; remaining activity at 10 µM ([7]; 10 uM): 87.6%; remaining activity at 10 µM ([8]; 10 uM): 95.7%; remaining activity at 10 µM ([9]; 10 uM): 78.7%; remaining activity at 10 µM ([10]; 10 uM): 98%; remaining activity at 10 µM ([11]; 10 uM): 103%
